These results are taken from ChEMBL document CHEMBL5352412, “Discovery of 1,2-diphenylethene derivatives as human DNA topoisomerase II catalytic inhibitors and antitumor agents” (Eur J Med Chem, 2022).

SMILES strings stand for the structures. pIC50: −log10 of the molar value. Some results are limits rather than exact numbers.

Series [1] can be described thus: Selectivity index, ratio of IC50 for human HL-7702 cells to IC50 for human A549 cells. In kind it is toxicity. The note with it: HL-7702 cells versus A549 cells, read-out: Ratio IC50.
In series [2] the target is T1, DNA topoisomerase 2-alpha (Homo sapiens, UniProt P11388). Briefly: Inhibition of human topoisomerase 2-alpha assessed as reduction in VP-16 induced enzyme-DNA cleavage complex formation by measuring linear DNA production. The note with it: dose 10-100 µM.
Series [3] deals with HepG2. Briefly: Induction of apoptosis in human HepG2 cells assessed as late apoptotic cells at 0.5 uM incubated for 24 hrs by annexin-V FITC and PI staining based flow cytometry analysis (reference value: 2.3%). Format: functional.
Series [4] concerns HepG2. Briefly: Induction of cell cycle arrest in human HepG2 cells assessed as accumulation of cells at G1 phase at 1 uM incubated for 24 hrs by PI staining based flow cytometry analysis (reference value: 54%). Format: functional. (In general: Flow cytometry measures light scatter and fluorescence of single cells or particles in a stream.)
The species named for series [5] is Homo sapiens. Briefly: Selectivity index, ratio of IC50 for human CCL-226 cells to IC50 for human HCT-116 cells.
Series [6] concerns HepG2. Briefly: Induction of apoptosis in human HepG2 cells assessed as viable cells at 0.5 uM incubated for 24 hrs by annexin-V FITC and PI staining based flow cytometry analysis (reference value: 93.8%). Format: functional. As to conditions: read-out: Activity.
Series [7] in a line: Selectivity index, ratio of IC50 for human HL-7702 cells to IC50 for human HepG2 cells. Format: toxicity. The note with it: HL-7702 cells versus HepG2 cells, read-out: Ratio IC50.
The nature of series [8]: Selectivity index, ratio of IC50 for human HL-7702 cells to IC50 for human HCT-116 cells. The note with it: HL-7702 cells versus HCT-116 cells, read-out: Ratio IC50. Format: toxicity.
Series [9] deals with HepG2. Briefly: Induction of cell cycle arrest in human HepG2 cells assessed as accumulation of cells at G2/M phase at 1 uM incubated for 24 hrs by PI staining based flow cytometry analysis (reference value: 17.5%). Format: functional.
For series [10], the system named is HepG2. Briefly: Induction of apoptosis in human HepG2 cells assessed as necrotic cells at 1 uM incubated for 24 hrs by annexin-V FITC and PI staining based flow cytometry analysis (reference value: 0.2%). Format: functional.
Series [11] relates to HepG2. Briefly: Induction of apoptosis in human HepG2 cells assessed as viable cells at 1 uM incubated for 24 hrs by annexin-V FITC and PI staining based flow cytometry analysis (reference value: 93.8%). Format: functional. The note with it: read-out: Activity.
The target of series [12] is T1, DNA topoisomerase 2-alpha. Briefly: Inhibition of human topoisomerase 2-alpha assessed as reduction in relaxation of pBR322 DNA measured after 30 mins by agarose gel electrophoresis method.
Series [13] deals with T1, DNA topoisomerase 2-alpha. Briefly: Inhibition of human topoisomerase 2-alpha assessed as reduction in relaxation of pBR322 DNA at 25 uM measured after 30 mins by agarose gel electrophoresis method relative to control.

T1 sequence (P11388 whole entry): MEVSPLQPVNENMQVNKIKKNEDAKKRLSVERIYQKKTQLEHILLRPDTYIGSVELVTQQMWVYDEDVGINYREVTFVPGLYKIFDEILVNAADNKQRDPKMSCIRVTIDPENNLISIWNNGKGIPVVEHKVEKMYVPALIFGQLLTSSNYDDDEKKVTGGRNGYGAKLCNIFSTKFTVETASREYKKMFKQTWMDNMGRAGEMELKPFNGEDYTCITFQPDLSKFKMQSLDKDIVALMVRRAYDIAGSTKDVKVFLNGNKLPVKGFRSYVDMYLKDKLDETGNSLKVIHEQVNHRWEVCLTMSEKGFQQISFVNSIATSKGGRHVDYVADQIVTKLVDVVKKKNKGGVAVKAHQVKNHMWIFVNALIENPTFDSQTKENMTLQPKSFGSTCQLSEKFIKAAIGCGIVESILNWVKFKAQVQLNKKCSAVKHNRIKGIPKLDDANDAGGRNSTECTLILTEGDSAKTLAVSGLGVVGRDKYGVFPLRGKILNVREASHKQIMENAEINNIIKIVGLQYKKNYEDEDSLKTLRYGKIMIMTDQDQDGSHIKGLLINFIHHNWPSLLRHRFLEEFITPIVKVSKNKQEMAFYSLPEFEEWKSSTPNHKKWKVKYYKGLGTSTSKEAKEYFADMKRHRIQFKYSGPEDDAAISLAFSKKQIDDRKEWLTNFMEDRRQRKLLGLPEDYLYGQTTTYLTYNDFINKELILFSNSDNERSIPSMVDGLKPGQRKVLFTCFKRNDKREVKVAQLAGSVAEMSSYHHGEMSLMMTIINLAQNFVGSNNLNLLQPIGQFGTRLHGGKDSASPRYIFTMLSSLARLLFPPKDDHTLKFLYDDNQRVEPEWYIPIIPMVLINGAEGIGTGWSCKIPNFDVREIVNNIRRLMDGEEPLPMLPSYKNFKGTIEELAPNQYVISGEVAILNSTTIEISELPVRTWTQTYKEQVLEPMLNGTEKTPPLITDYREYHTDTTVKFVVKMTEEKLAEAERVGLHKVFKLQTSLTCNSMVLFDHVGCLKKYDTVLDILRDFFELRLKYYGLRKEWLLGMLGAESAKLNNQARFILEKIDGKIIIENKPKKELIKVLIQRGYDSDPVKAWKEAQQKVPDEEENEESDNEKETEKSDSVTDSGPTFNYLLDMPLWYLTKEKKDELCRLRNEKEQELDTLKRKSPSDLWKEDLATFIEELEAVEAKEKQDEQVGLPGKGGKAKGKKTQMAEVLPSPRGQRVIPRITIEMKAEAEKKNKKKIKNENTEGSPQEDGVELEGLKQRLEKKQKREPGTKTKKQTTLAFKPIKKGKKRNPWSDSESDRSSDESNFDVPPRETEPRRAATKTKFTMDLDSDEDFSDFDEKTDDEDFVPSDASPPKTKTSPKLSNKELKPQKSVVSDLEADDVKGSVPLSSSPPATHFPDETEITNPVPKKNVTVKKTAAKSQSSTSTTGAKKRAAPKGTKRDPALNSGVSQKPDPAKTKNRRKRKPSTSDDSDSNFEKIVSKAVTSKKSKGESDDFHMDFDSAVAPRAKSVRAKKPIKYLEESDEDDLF

Take `O=C(CCc1ccccc1)Nc1ccc(-c2ccc3cc(O)ccc3c2)cc1`: the selectivity ratio in [1], in [7] and in series [8] was > 52.1 throughout. For the same compound, the inhibition (in general, the percentage by which the read-out fell short of the control) in [2] is “Dose-Dependent Effect”; in [13], 84.6%. Moreover, the Activity in series [3] is 13.4%; in [4] it was 3.3%; in series [9], 84.1%; in series [10] it was 0.3%. Further, the Ratio IC50 in [5] was > 52.1. Besides, in [6], the viability at 0.5 µM amounted to 72.5%. In addition, the viability at 1 µM in series [11] turned out to be 29.2%. Also, the pIC50 (in general, the IC50 on a negative log10 scale, so that one unit is a factor of ten) in series [12] was 5.42.
